Key:
[1] = tested on: Staphylococcus aureus ATCC 33591 (methicillin-resistant); assay: Broth microdilution MIC; type: cell-based; conditions: Staphylococcus aureus, ATCC33591, read-out: Minimum Inhibitory Concentrations (MIC)
[2] = tested on: Escherichia coli ATCC 25922; assay: Broth microdilution MIC; type: cell-based; conditions: Escherichia coli, ATCC25922, read-out: Minimum Inhibitory Concentrations (MIC)
[3] = tested on: Staphylococcus aureus ATCC 25923; assay: Broth microdilution MIC; type: cell-based; conditions: for MIC: Staphylococcus aureus, ATCC25923, read-out: Minimum Inhibitory Concentrations (MIC)
HEK293 cells = assay: Cytotoxicity MTS assay; type: cell-based, human; conditions: Homo sapiens, HEK293, 48 h, read-out: IC50 HEK293
Description: (§1) The cytotoxic potential of the selected drug candidates was evaluated using the CellTiter 96® AQueous One Solution Cell Proliferation Assay (Promega, Madison, WI, USA), following the manufacturer’s protocol. Human cell lines RPE1 and HEK293 were cultured at 37 °C in a humidified incubator with 5% CO2. Test compounds were dissolved in the appropriate growth medium and serially diluted across a range of concentrations in 96-well microtiter plates. Each well was seeded with 5000 cells and incubated for 48 h under standard culture conditions. Following this incubation period, 20 µL of MTS reagent was added to each well, and the plates were further incubated for 3 h to allow for color development. Absorbance was measured at 490 nm using a microplate reader to determine cell viability. Cytotoxicity was quantified as the half-maximal inhibitory concentration (IC50), defined as the concentration of compound that reduced cell viability by 50%. […] IC50 values were calculated using GraFit 6.0 software by plotting compound concentration against absorbance and fitting the data to a sigmoidal dose–response curve.

RPE1 cells = assay: Cytotoxicity MTS assay; type: cell-based, human; conditions: Homo sapiens, RPE-1, 48 h, read-out: IC50 RPE1
Description: as §1

[4] = tested on: Listeria monocytogenes ATCC 7644; assay: Broth microdilution MIC; type: cell-based; conditions: for MIC: Listeria monocytogenes, ATCC7644, read-out: Minimum Inhibitory Concentrations (MIC), Listeria monocytogenes ATCC 7644
[5] = tested on: Staphylococcus aureus ATCC 25923; assay: Time-kill kinetics assay; type: cell-based
Description: To assess the temporal dynamics of bacterial viability upon exposure to the test compounds, a time-kill kinetics assay was performed using the Gram-positive reference strain Staphylococcus aureus ATCC 25923. An overnight culture of the strain was subcultured into fresh, pre-warmed Mueller–Hinton broth (MHB) and incubated under aerobic conditions at 37 °C with agitation (220 rpm) until reaching the early exponential growth phase. The bacterial suspension was then standardized to an initial concentration of approximately 5 × 10^5 CFU/mL. […] Wells containing untreated bacterial cultures served as growth controls. Immediately after mixing, a 10 µL sample from each well was withdrawn, diluted in 990 µL of MHB, and serially diluted tenfold up to 10^−6. From each dilution, 20 µL was plated on MHB agar using a sterile loop to determine the initial bacterial count (time zero). The treated plates were incubated at 37 °C, and additional samples were collected at predetermined time points (2, 4, 6, 8, 12, and 24 h) following the same dilution and plating protocol. After 24 h of incubation at 37 °C, colonies were counted, and viable bacterial counts were expressed as log10 CFU/mL for each time point. Bactericidal activity was evaluated by plotting the log10 CFU/mL over time, providing a dynamic profile of the compound’s killing kinetics.

[6] = tested on: Staphylococcus aureus Clinical/MRSA; assay: Broth microdilution MIC; type: cell-based; conditions: Staphylococcus aureus, MRSA, read-out: Minimum Inhibitory Concentrations (MIC)
[7] = tested on: Listeria monocytogenes ATCC 7644; assay: Time-resolved growth kinetics; type: cell-based; conditions: MIC and ½ MIC
Description: The antimicrobial activity of the candidate compounds against Staphylococcus aureus ATCC 25923 and Listeria monocytogenes ATCC 7644 was further evaluated using a time-resolved growth kinetics assay in 96-well microtiter plates. Overnight bacterial cultures were diluted in fresh, pre-warmed Mueller–Hinton broth (MHB) and incubated at 37 °C with orbital shaking at 220 rpm. Upon reaching the exponential growth phase (OD600 = 0.3–0.5), cultures were standardized to a final concentration of 5 × 10^4 CFU/mL. Aliquots (50 µL) of the standardized inoculum were dispensed into wells containing either no antimicrobial agent (negative control) or the test compounds at concentrations corresponding to ½ MIC and MIC. Bacterial growth was continuously monitored over a 24 h period by measuring absorbance at 595 nm every 10 min using a Bio-Tek EL808 microplate reader (Winooski, VT, USA). Growth kinetics were assessed by comparing the optical density profiles of treated samples against the untreated control. Each experiment was performed independently twice, with all conditions tested in triplicate. Data are presented as the mean values of these replicates.

[8] = tested on: Salmonella enterica (food isolate); assay: Broth microdilution MIC; type: cell-based; conditions: read-out: Minimum Inhibitory Concentrations (MIC)
[9] = tested on: Pseudomonas aeruginosa ATCC 27853; assay: Broth microdilution MIC; type: cell-based; conditions: for MIC: Pseudomonas aeruginosa, ATCC27853, read-out: Minimum Inhibitory Concentrations (MIC)
[10] = tested on: Staphylococcus aureus ATCC 25923; assay: Biofilm inhibition assay (crystal violet); type: cell-based
Description: The ability of the candidate compounds to inhibit biofilm formation was evaluated by determining the minimum biofilm inhibitory concentration (MBIC) against the biofilm-forming strains Staphylococcus aureus ATCC 25923 and Listeria monocytogenes ATCC 7644. Overnight bacterial cultures were diluted in fresh, pre-warmed Mueller–Hinton broth (MHB) and incubated at 37 °C with constant shaking at 220 rpm. Once the cultures reached the exponential growth phase (OD600 = 0.3–0.5), they were standardized to a final concentration of 4 × 10^6 CFU/mL.
Plates were incubated at 37 °C for 24 to 48 h, depending on the bacterial strain. After incubation, the planktonic cells were carefully aspirated to preserve the integrity of the biofilm layer. Wells were gently rinsed with sterile ultrapure Milli-Q water and air-dried at 60 °C for 1 h to fix the biofilms. Biofilm formation was quantified using a crystal violet (CV) staining method. Wells were stained with 100 µL of 0.1% CV solution and incubated at room temperature for 1 h. Excess dye was removed by rinsing with sterile ultrapure Milli-Q water, followed by air-drying. Bound CV was solubilized with 100 µL of 70% ethanol and incubated for 30 min. The solubilized dye was transferred to a fresh plate, and absorbance was measured at 595 nm using a microplate reader (Bio-Tek EL808, Winooski, VT, USA). Absorbance values were directly proportional to biofilm biomass. Untreated bacterial cultures served as positive controls for biofilm formation, while sterile MHB served as the negative control.

[11] = S. aureus ATCC 25923, 6.25 µg/mL
[12] = S. aureus ATCC 25923, 12.5 µg/mL
[13] = S. aureus ATCC 25923, 100 µg/mL

SMILES	MIC [1]	MIC [2]	MIC [3]	IC50 (HEK293 cells)	IC50 (RPE1 cells)	MIC [4]	MIC [6]	effect on bacterial growth [7]	MIC [8]	MIC [9]	biofilm inhibition [10, 11]	biofilm inhibition [10, 12]	biofilm inhibition ([10]; S. aureus ATCC 25923, 25 µg/mL)	biofilm inhibition ([10]; S. aureus ATCC 25923, 50 µg/mL)	biofilm inhibition [10, 13]	also measured
CCCCCCCCCCCCCCCCNC1C[N+]2(CCCCCC[N+]34CCC(CC3)C(NCCCCCCCCCCCCCCCC)C4)CCC1CC2 (racemic) [2(QC16)6, (±)-1,1′-(Hexane-1,6-diyl) bis(3-(hexadecylamino)quinuclidinium) dibromide]	5 µM	19 µM	9 µM	7 µM	5 µM	38 µM	38 µM	pronounced inhibitory effect	75 µM	> 75 µM	6%	> 30%	> 80%	> 90%	95%	Minimum Inhibitory Concentrations (MIC) ([3]; Staphylococcus aureus ATCC 25923): 9 µM; Minimum Inhibitory Concentrations (MIC) ([4]; Listeria monocytogenes ATCC 7644): 19 µM; time to complete eradication / elimination of viable cells (CFU) ([5]; S. aureus ATCC 25923): ≤ 2 h; Minimum Inhibitory Concentrations (MIC) ([9]; Pseudomonas aeruginosa ATCC 27853): largely inactive
CCCCCCCCCCCCCCCCNC1C[N+]2(CCC[N+]34CCC(CC3)C(NCCCCCCCCCCCCCCCC)C4)CCC1CC2 (racemic) [2(QC16)3, (±)-1,1′-(Propane-1,3-diyl) bis(3-(hexadecylamino)quinuclidinium) dibromide]	19 µM	> 75 µM	38 µM	21 µM	69 µM	9 µM	> 75 µM	pronounced inhibitory effect	> 75 µM	> 75 µM	> 2%	11%	> 80%	exceeding 90%	exceeding 90%	time to rapid bactericidal activity ([5]; S. aureus ATCC 25923): ≤ 3 h; time to complete killing ([5]; S. aureus ATCC 25923, 2 × MIC): 2 h

— article PMC12473123, “Structure–Function Insights into Quinuclidine-3-One BisQACs: Synthesis, Modulation of Bacterial Resistance, Structure–Activity Relationship, and Biological Profiling” (Pharmaceuticals, 2025)
